Residues, ends and D or L forms follow the SMILES beside them. No end group written: not given here.
Tests used:
MCF-10F cells [1] = settings: cells treated with E2; cited from earlier work
FAK/AKT/FOXO3A pathway = assay: FAK, AKT and FOXO3A expression (unpublished data); type: cell-based; settings: previous results
MCF-10F cells [2] = type: cell-based, human
[3] = molecular target: T1, LH/hCG binding to rat ovarian membranes (Rattus norvegicus, UniProt P16235); settings: among two series of overlapping peptides of hCG (ref. 15); cited from earlier work
T1 construct: from tissue; host or cells: rat ovarian membranes

CXCR1 = assay: real time RT-PCR, CXCR1 gene expression; type: cell-based, human
GPR30 = assay: real time RT-PCR, GPR30 gene expression; type: cell-based, human; settings: treated MCF-10F cells, data not shown
LHCGR = assay: real time RT-PCR, LHCGR gene expression; type: cell-based, human
LH/hCG-R in MCF10F cells = molecular target: T2, LH/hCG-R in MCF10F cells (Homo sapiens, UniProt P22888); assay: intracellular cAMP production (enzyme immunoassay); type: cell-based; settings: 2.5 μg r-hCG/ml or 20 μM PPFC-879-81-95
T2 construct: For verifying the presence and functionality of the receptor in normal and transformed MCF10F cells; endogenous in cells; host or cells: MCF10F human breast epithelial cells

LH/hCG-R in MA-10 cells = molecular target: T3, LH/hCG-R in MA-10 cells (Mus musculus, UniProt P30730); assay: intracellular cAMP production (enzyme immunoassay); type: cell-based; settings: 2.5 μg r-hCG/ml or 20 μM PPFC-879-81-95
T3 construct: endogenous in cells; host or cells: MA-10 mouse Leydig tumor cells

[4] = system: human breast epithelial cells; assay: genomic analysis of r-hCG and peptide-treated cells; type: cell-based
From the text: The down-regulation of BMI1 supports the concept that the preventive effect of hCG results from the shifting of the stem cell 1 to stem cell 2 (Russo, J., et al., (2006) Front Biosci., 11:151-172). This is only one example of identification of the molecular determinants of hormone specificity which provide the means to target the CG/LH-R for activation thereby conferring the protective effects against breast cancer.

MCF-7 = assay: invasiveness (cells traversing a matrigel membrane); type: cell-based, human
From the text: (§1) FIG. 2: (A) Effect of 17b-estradiol (E2), r-hCG and PPFC-879-81-95 peptide on formation of primary, secondary, and tertiary ducts by MCF10F cells grown in a collagen matrix. DMSO served as control. Ordinate, percentage of structures. (B) Effect of r-hCG and hCG peptide on colony formation. Only DMSO-treated (control) E2-cells formed solid masses. (C) Effect of r-hCG and hCG peptide on the invasive index of MCF10F, E2-transformed, E2T4, MCF-7 and MDA-MB-435 cells. Ordinate, number of cells traversing a matrigel membrane.
(§2) The cells grow along hollow branches forming ductules lined by a monolayer of epithelial cells. […] For these studies, we designed oligopeptides of the hCG beta subunit and had them synthesized by AAPPTec, LLC, Louisville, Ky. We selected a 15 aa peptide with a sequence “N”-[…]-“C” (SEQ ID NO: 2) that encompasses aa 81-95 and was designated PPFC-879-81-95.

MDA-MB-435 = assay: as above; type: cell-based, human
From the text: as §1, §2

[5] = system: E2-transformed MCF-10F cells; assay: as above; type: cell-based, human
From the text: as §1, §2

tumor derived E2T4 cells = assay: as above; type: cell-based, human
From the text: as §1, §2

MCF-10F cells [6] = assay: as above; type: cell-based, human
From the text: as §1, §2

[7] = system: E2-transformed MCF-10F cells; assay: solid mass formation and branching of E2-transformed MCF-10F cells in collagen; type: cell-based, human; settings: compared with r-hCG
MCF-10F cells [8] = assay: ductulogenesis and branching of MCF-10F cells in 3D collagen matrix; type: cell-based, human; settings: MCF-10F cells in collagen matrix, added to the culture medium
From the text: as §2

T2 sequence (P22888 27-699): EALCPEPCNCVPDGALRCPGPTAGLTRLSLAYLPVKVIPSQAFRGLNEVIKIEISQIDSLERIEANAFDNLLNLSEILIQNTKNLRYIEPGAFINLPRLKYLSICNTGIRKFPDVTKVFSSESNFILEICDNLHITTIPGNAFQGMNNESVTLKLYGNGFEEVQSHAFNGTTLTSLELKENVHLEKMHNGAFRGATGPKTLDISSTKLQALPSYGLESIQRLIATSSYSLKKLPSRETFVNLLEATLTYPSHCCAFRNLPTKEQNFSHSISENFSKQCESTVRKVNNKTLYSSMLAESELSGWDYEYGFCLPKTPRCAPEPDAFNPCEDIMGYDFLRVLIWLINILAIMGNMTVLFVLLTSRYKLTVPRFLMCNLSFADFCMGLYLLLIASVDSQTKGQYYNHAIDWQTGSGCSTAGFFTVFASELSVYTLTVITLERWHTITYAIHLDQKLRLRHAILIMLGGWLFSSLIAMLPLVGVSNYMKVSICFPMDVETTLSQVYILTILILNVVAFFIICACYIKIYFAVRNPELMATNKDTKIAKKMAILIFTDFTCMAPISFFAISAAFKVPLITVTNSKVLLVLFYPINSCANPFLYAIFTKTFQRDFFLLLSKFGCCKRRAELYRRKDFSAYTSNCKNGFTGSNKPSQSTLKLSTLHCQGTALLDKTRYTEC
T3 sequence (P30730 27-700): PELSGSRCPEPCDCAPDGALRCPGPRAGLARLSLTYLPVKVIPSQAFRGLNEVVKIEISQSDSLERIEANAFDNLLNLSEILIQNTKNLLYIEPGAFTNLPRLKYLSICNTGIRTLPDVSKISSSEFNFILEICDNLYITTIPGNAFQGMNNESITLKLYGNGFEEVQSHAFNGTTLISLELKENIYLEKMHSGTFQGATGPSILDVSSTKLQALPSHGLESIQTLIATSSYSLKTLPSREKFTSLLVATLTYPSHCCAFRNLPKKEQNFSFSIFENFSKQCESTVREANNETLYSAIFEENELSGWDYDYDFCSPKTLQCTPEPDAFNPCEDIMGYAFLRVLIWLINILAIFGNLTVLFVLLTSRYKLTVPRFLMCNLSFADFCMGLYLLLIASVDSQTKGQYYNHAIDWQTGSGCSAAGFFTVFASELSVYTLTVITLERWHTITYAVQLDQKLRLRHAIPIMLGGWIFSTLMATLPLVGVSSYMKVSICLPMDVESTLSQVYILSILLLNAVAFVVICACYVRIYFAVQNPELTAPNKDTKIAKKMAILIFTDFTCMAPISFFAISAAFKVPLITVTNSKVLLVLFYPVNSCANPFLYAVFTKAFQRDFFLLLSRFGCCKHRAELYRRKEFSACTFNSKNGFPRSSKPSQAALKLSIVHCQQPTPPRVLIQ
T1 sequence (P16235 27-700): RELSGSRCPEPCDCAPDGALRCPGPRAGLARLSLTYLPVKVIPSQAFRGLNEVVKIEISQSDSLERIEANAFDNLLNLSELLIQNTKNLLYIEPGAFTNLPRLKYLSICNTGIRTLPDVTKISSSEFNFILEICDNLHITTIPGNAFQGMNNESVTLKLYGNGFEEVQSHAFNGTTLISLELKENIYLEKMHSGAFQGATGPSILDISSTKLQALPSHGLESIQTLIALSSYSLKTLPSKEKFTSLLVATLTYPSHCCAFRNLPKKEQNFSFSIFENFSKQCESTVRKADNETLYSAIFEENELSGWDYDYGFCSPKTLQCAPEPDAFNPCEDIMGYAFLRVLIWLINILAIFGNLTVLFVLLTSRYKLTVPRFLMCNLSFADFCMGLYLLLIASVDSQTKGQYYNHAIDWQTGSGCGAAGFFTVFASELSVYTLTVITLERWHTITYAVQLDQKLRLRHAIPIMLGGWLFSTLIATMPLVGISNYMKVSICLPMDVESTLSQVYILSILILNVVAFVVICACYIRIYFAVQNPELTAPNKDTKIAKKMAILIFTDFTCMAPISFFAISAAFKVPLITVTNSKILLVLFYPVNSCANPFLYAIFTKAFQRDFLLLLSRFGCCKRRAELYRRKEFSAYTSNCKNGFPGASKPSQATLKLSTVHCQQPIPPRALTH

In the case of `C[C@]12CC[C@@H]3c4ccc(O)cc4CC[C@H]3[C@@H]1CC[C@@H]2O` [E2, 17-β-estradiol], the “structures formed by MCF-10F cells in collagen after treatment” value (MCF-10F cells [1]) is listed as “forming instead spherical structures with a multilayered epithelium that exhibits marked atypia”.
In the case of `CC(C)C[C@H](NC(=O)[C@H](C)NC(=O)[C@@H](NC(=O)[C@@H]1CCCN1C(=O)[C@H](Cc1ccccc1)NC(=O)[C@@H](N)CO)C(C)C)C(=O)N[C@@H](CO)C(=O)N[C@@H](CS)C(=O)N[C@@H](CCCNC(=N)N)C(=O)N[C@@H](CS)C(=O)NCC(=O)N1CCC[C@H]1C(=O)N[C@@H](CS)C(=O)N[C@@H](CCCNC(=N)N)C(=O)N[C@@H](CCCNC(=N)N)C(N)=O` [peptide, SFP VAL SCR CGP CRR-NH2] (H-SFPVALSCRCGPCRR-NH2; N-terminus assumed), the “FAK and AKT” value (FAK/AKT/FOXO3A pathway) is reported as “decrease”, the FOXO3A expression (FAK/AKT/FOXO3A pathway) is reported as “up-regulate” and the “cell proliferation inhibition, peptide versus hCG” value (MCF-10F cells [2]; days 10 and 12, p<0.02) is reported as “more potent cell proliferation inhibitor than hCG”. The “decrease in the number of viable cells” value (MCF-10F cells [2]; human, 20 μM) was 36-72%, the “inhibition of 125I-labeled hCG binding” value [3] was “most potent inhibitor of LH/hCG binding” and the CXCR1 expression (CXCR1; MCF-10F, all along the treatment) was “down-regulated”. The “CXCR1 down-regulation, peptide versus hCG” value (CXCR1; last day of treatment (15), p<0.01) was “down-regulation of the receptor was more apparent in the peptide-treated cells than in hCG treated cells”, the “GPR30 mRNA expression” value (GPR30) was “undetectable or very low values” and the “hCG receptor (LHCGR) gene expression” value (LHCGR; MCF-10F, from the first day of treatment on) was “up-regulated”. The “LHCGR gene expression, peptide versus hCG” value (LHCGR; last day of treatment (15th), p=0.06) was “tendency of the peptide to induce a higher levels gene expression than hCG”.
With “Ser-Tyr-Ala-Val-Ala-Leu-Ser-Cys-Gln-Cys-Ala-Leu-Cys-Arg-Arg (NH2) (SYAVALSCQCALCRR-NH2; cysteine pairing not given here) [PPFC-879-81-95, 15 aa peptide of the hCG beta subunit, aa 81-95]” the “intracellular cAMP production” value (LH/hCG-R in MCF10F cells) was “time-dependent increase”, the “intracellular cAMP production” value (LH/hCG-R in MA-10 cells) was “time-dependent increase” and the “gene clusters activated or downregulated” value [4] was “induced activation or downregulation of the same clusters of genes that were modified by either parity or r-hCG treatment”. The invasiveness (MCF-7) was “inhibited invasiveness”, the invasiveness (MDA-MB-435) was “inhibited invasiveness” and the invasiveness [5] was “inhibited invasiveness”. The invasiveness (tumor derived E2T4 cells) was “inhibited invasiveness”, the invasiveness (MCF-10F cells [6]) was “inhibited invasiveness” and the “formation of solid masses in collagen” value [7] was “abrogated more efficiently than r-hCG”. The “number of secondary and tertiary ducts (branching pattern)” value (MCF-10F cells [8]) was “increasing the number of secondary and tertiary ducts”.

— US8969304B2, “Compositions and methods for the prevention of cancer in high risk patients” (The Institute for Cancer Research, priority 2010, dated 2015)
